Results taken from US8796256B2 (Janssen Pharmaceutica NV, priority 2010, dated 2014).

Target: T1, ERR1 (also known as ERR-α or ERR-1) (Homo sapiens, UniProt P11474)
T1 sequence (P11474 193-421 limits assumed): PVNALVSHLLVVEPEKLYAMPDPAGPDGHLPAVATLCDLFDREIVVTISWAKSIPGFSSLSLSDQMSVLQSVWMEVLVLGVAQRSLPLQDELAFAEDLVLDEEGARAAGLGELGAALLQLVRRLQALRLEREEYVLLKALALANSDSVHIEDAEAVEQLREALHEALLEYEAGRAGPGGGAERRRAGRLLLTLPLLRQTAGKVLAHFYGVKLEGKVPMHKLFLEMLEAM
Test: TR-FRET assay (disruption of co-activator peptide binding to ERR1 LBD)
Type: biochemical
Settings: 6 nM 6His-ERR1LBD, 6 nM GST-SRC-2 peptide; average of 3 independent experiments
In short: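 His-tagged ERR1 ligand-binding domain and GST-labelled SRC-2 peptide, each 6 nM, equilibrated at 25° C for 4-18 h in Tris pH 8/Hepes/KCl/DTT/delipidated BSA buffer. Compound-induced loss of co-activator binding read as Eu cryptate→XL665 energy transfer; values from hyperbolic curve fits averaged over 3 independent runs.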

EC50 [nM] | Structure (SMILES)
1800 | COC(=O)CN1C(=O)S/C(=C\c2ccc3c(ccn3Cc3ccc(C(F)(F)F)cc3C(F)(F)F)c2)C1=O [Compound 238, Methyl {(5Z)-5-[(1-{[2,4-bis(trifluoromethyl)phenyl]methyl}-1H-indol-5-yl)methylidene]-2,4-dioxo-1,3-thiazolidin-3-yl}acetate]
124 | CCOC(=O)C1CCC(N2C(=O)S/C(=C\c3ccc4c(c3)nnn4Cc3ccc(Cl)cc3C(F)(F)F)C2=O)CC1 (centres unmarked) [Compound 261, Ethyl 4-[(5Z)-5-({1-[4-chloro-2-(trifluoromethyl)benzyl]-1H-benzotriazol-5-yl}methylidene)-2,4-dioxo-1,3-thiazolidin-3-yl]cyclohexanecarboxylate]
15 | [2H]C([2H])([2H])N1CC[C@@H](N2C(=O)S/C(=C\c3ccc4c(cnn4Cc4ccc(Cl)cc4C(F)(F)F)c3)C2=O)[C@H](F)C1 (relative stereo) [Compound 329, (5Z)-5-({1-[4-Chloro-2-(trifluoromethyl)benzyl]-1H-indazol-5-yl}methylidene)-3-[trans-3-fluoro-1-(1,1,1-d3)-methylpiperidin-4-yl]-1,3-thiazolidine-2,4-dione]
20 | O=C1S/C(=C\c2ccc3c(cnn3Cc3ccc(Cl)cc3C(F)(F)F)c2)C(=O)N1Cc1ncc[nH]1 [Compound 403, (5Z)-5-({1-[4-Chloro-2-(trifluoromethyl)benzyl]-1H-indazol-5-yl}methylidene)-3-(1H-imidazol-2-ylmethyl)-1,3-thiazolidine-2,4-dione]
26 | CC(=O)NCCN1C(=O)S/C(=C\c2ccc3c(cnn3Cc3ccc(Cl)cc3C(F)(F)F)c2)C1=O [Compound 389, N-{2-[(5Z)-5-({1-[4-Chloro-2-(trifluoromethyl)benzyl]-1H-indazol-5-yl}methylidene)-2,4-dioxo-1,3-thiazolidin-3-yl]ethyl}acetamide]
300 | CN(C)CCCN1C(=O)S/C(=C\c2ccc3c(ccn3Cc3ccc(C#N)cc3C(F)(F)F)c2)C1=O [Compound 247, 4-({5-[(Z)-{3-[3-(Dimethylamino)propyl]-2,4-dioxo-1,3-thiazolidin-5-ylidene}methyl]-1H-indol-1-yl}methyl)-3-(trifluoromethyl)benzonitrile]
3 | O=C1S/C(=C\c2ccc3c(cnn3Cc3ccc(Cl)cc3C(F)(F)F)c2)C(=O)N1CC1(F)CCN(CCO)CC1 [Compound 305, (5Z)-5-({1-[4-Chloro-2-(trifluoromethyl)benzyl]-1H-indazol-5-yl}methylidene)-3-{[4-fluoro-1-(2-hydroxyethyl)piperidin-4-yl]methyl}-1,3-thiazolidine-2,4-dione]
36 | O=C1S/C(=C\c2ccc3c(cnn3Cc3ccc(Cl)cc3C(F)(F)F)c2)C(=O)N1[C@@H]1CNC[C@H]1O (relative stereo) [Compound 316, (5Z)-5-({1-[4-Chloro-2-(trifluoromethyl)benzyl]-1H-indazol-5-yl}methylidene)-3-[trans-4-hydroxypyrrolidin-3-yl]-1,3-thiazolidine-2,4-dione]
53 | COC(=O)N1CCN(C(=O)CN2C(=O)S/C(=C\c3ccc4c(cnn4Cc4ccc(Cl)cc4C(F)(F)F)c3)C2=O)S1(=O)=O [Compound 340, Methyl 5-{[(5Z)-5-({1-[4-chloro-2-(trifluoromethyl)benzyl]-1H-indazol-5-yl}methylidene)-2,4-dioxo-1,3-thiazolidin-3-yl]acetyl}-1,2,5-thiadiazolidine-2-carboxylate 1,1-dioxide]
34 | N#CCN1CC[C@@H](N2C(=O)S/C(=C\c3ccc4c(cnn4Cc4ccc(Cl)cc4C(F)(F)F)c3)C2=O)[C@H](F)C1 [Compound 388, {(3R,4R)-4-[(5Z)-5-({1-[4-Chloro-2-(trifluoromethyl)benzyl]-1H-indazol-5-yl}methylidene)-2,4-dioxo-1,3-thiazolidin-3-yl]-3-fluoropiperidin-1-yl}acetonitrile]
34 | O=C1S/C(=C\c2ccc3c(cnn3Cc3ccc(Cl)cc3C(F)(F)F)c2)C(=O)N1[C@@H]1CCNC[C@H]1F (relative stereo) [Compound 273, (5Z)-5-({1-[4-Chloro-2-(trifluoromethyl)benzyl]-1H-indazol-5-yl}methylidene)-3-(trans-3-fluoropiperidin-4-yl)-1,3-thiazolidine-2,4-dione]
11 | O=C(NN1C(=O)S/C(=C\c2ccc3c(cnn3Cc3ccc(C(F)(F)F)cc3C(F)(F)F)c2)C1=O)C1CC1 [Compound 372, N-[(5Z)-5-({1-[2,4-Bis(trifluoromethyl)benzyl]-1H-indazol-5-yl}methylidene)-2,4-dioxo-1,3-thiazolidin-3-yl]cyclopropanecarboxamide]
215 | O=C1S/C(=C\c2ccc3c(cnn3Cc3ccc(Cl)cc3C(F)(F)F)c2)C(=O)N1CCNS(=O)(=O)c1ccc(C(F)(F)F)cc1 [Compound 392, N-{2-[(5Z)-5-({1-[4-Chloro-2-(trifluoromethyl)benzyl]-1H-indazol-5-yl}methylidene)-2,4-dioxo-1,3-thiazolidin-3-yl]ethyl}-4-(trifluoromethyl) benzenesulfonamide]
308 | CS(=O)(=O)NN1C(=O)S/C(=C\c2ccc3c(cnn3Cc3ccc(C#N)cc3C(F)(F)F)c2)C1=O [Compound 362, N-[(5Z)-5-({1-[4-Cyano-2-(trifluoromethyl)benzyl]-1H-indazol-5-yl}methylidene)-2,4-dioxo-1,3-thiazolidin-3-yl]methanesulfonamide]

Further lines, the compound ahead of its results:

Structure (SMILES) | EC50 [nM]
COC(=O)C(C1CCOCC1)N1C(=O)S/C(=C\c2ccc3c(cnn3Cc3ccc(Cl)cc3C(F)(F)F)c2)C1=O (centres unmarked) [Compound 209, Methyl [(5Z)-5-({1-[4-chloro-2-(trifluoromethyl)benzyl]-1H-indazol-5-yl}methylidene)-2,4-dioxo-1,3-thiazolidin-3-yl](tetrahydro-2H-pyran-4-yl)acetate] | 87
O=C1S/C(=C\c2ccc3c(cnn3Cc3ccc(Cl)cc3C(F)(F)F)c2)C(=O)N1Cc1cncs1 [Compound 94, (5Z)-5-({1-[4-Chloro-2-(trifluoromethyl)benzyl]-1H-indazol-5-yl}methylidene)-3-(1,3-thiazol-5-ylmethyl)-1,3-thiazolidine-2,4-dione] | ≥ 10000
O=C1S/C(=C\c2ccc3c(cnn3Cc3ccc(Cl)cc3C(F)(F)F)c2)C(=O)N1C1(C(=O)O)CCNCC1 [Compound 230, 4-[(5Z)-5-({1-[4-Chloro-2-(trifluoromethyl)benzyl]-1H-indazol-5-yl}methylidene)-2,4-dioxo-1,3-thiazolidin-3-yl]piperidine-4-carboxylic acid] | 16
O=C1S/C(=C\c2ccc3c(cnn3Cc3ccc(Cl)cc3C(F)(F)F)c2)C(=O)N1CCN1CC[C@H](F)C1 [Compound 2, (5Z)-5-({1-[4-Chloro-2-(trifluoromethyl)benzyl]-1H-indazol-5-yl}methylidene)-3-{2-[(3S)-3-fluoro-pyrrolidin-1-yl]ethyl}-1,3-thiazolidine-2,4-dione] | 185
CN1C(=O)S/C(=C\c2ccc3c(cnn3Cc3ccc(Cl)cc3C(F)(F)F)c2)C1=O [Compound 127, (5Z)-5-({1-[4-Chloro-2-(trifluoromethyl)-benzyl]-1H-indazol-5-yl}methylidene)-3-methyl-1,3-thiazolidine-2,4-dione] | 32
O=C1S/C(=C\c2ccc3c(cnn3Cc3ccc(Cl)cc3C(F)(F)F)c2)C(=O)N1C[C@H]1CCCNC1 [Compound 96, (5Z)-5-({1-[4-Chloro-2-(trifluoromethyl)benzyl]-1H-indazol-5-yl}methylidene)-3-[(3S)-piperidin-3-ylmethyl]-1,3-thiazolidine-2,4-dione] | 67
O=C1S/C(=C\c2ccc3c(cnn3Cc3ccc(Cl)cc3C(F)(F)F)c2)C(=O)N1[C@@H]1CNCC[C@@H]1F (relative stereo) [Compound 199, (5Z)-5-({1-[4-Chloro-2-(trifluoromethyl)benzyl]-1H-indazol-5-yl}methylidene)-3-(cis-4-fluoropiperidin-3-yl)-1,3-thiazolidine-2,4-dione] | 15
CC(C)N(CCO)CCN1C(=O)S/C(=C\c2ccc3c(cnn3Cc3ccc(Cl)cc3C(F)(F)F)c2)C1=O [Compound 45, (5Z)-5-({1-[4-Chloro-2-(trifluoromethyl)benzyl]-1H-indazol-5-yl}methylidene)-3-{2-[(2-hydroxyethyl)(1-methylethyl)amino]ethyl}-1,3-thiazolidine-2,4-dione] | 47
NS(=O)(=O)CN1C(=O)S/C(=C\c2ccc3c(cnn3Cc3ccc(C(F)(F)F)cc3C(F)(F)F)c2)C1=O [Compound 68] | 124
COc1ccc(Cn2ncc3cc(/C=C4\SC(=O)N(CCCN(C)C)C4=O)ccc32)c(C(F)(F)F)c1 [Compound 10, (5Z)-3-[3-(Dimethylamino)propyl]-5-[(1-{[4-(methyloxy)-2-(trifluoromethyl)phenyl]-methyl}-1H-indazol-5-yl)methylidene]-1,3-thiazolidine-2,4-dione] | 8
O=C1S/C(=C\c2ccc3c(cnn3Cc3ccc(Cl)cc3C(F)(F)F)c2)C(=O)N1C[C@@H]1CCCN1CCO [Compound 153, (5Z)-5-({1-[4-Chloro-2-(trifluoromethyl)benzyl]-1H-indazol-5-yl}methylidene)-3-{[(2S)-1-(2-hydroxyethyl)pyrrolidin-2-yl]methyl}-1,3-thiazolidine-2,4-dione] | 17
O=C1S/C(=C\c2ccc3c(cnn3Cc3ccc(Cl)cc3C(F)(F)F)c2)C(=O)N1CCN1CCC1 [Compound 120, (5Z)-3-(2-Azetidin-1-ylethyl)-5-({1-[4-chloro-2-(trifluoromethyl)benzyl]-1H-indazol-5-yl}methylidene)-1,3-thiazolidine-2,4-dione] | 220
